What all share (assay): microbe, parasite or virus in culture
What all share (type): cell-based

One assay concerns SARS-CoV replicon. Particulars: Severe acute respiratory syndrome coronavirus, HEK-293T, 60 h.
A further assay relates to SARS-CoV-2 replicon. Particulars: HEK293T cells; for IC50 / inhibition at 10 µM: Severe acute respiratory syndrome coronavirus 2, HEK-293T, 60 h.
The next assay concerns SARS-CoV-2 (B.1).
The mark [1] stands for this setting: Severe acute respiratory syndrome coronavirus 2, Vero C1008, 48 h.

Where two headings read alike, the source gives them in different places.

For the compound `CC(C)C(=O)Nc1ncnn2c([C@]3(C#N)O[C@H](COC(=O)C(C)C)[C@@H](OC(=O)C(C)C)[C@H]3OC(=O)C(C)C)ccc12` [ATV001, (2R,3R,4R,5R)-2-cyano-2-(4-isobutyramidopyrrolo[2,1-f][1,2,4]triazin-7-PGP-yl)-5-((isobutyryloxy)methyl)tetrahydrofuran-3,4-diyl bis(2-methylpropanoate)], the inhibition (in general, the percentage by which the read-out fell short of the control) at 10 µM with SARS-CoV replicon came to 66.8%. In addition, the “antiviral activity relative to GS-441524” value with SARS-CoV-2 replicon (in words) is “significantly lower than that of GS-441524”. Further, the IC50 (as a rule, the concentration that inhibits the measured activity by half) in the assay with SARS-CoV-2 replicon was more than 50000 nM.
For `CC(=O)Nc1ncnn2c([C@]3(C#N)O[C@H](COC(C)=O)[C@@H](OC(C)=O)[C@H]3OC(C)=O)ccc12` [ATV002, (2R,3R,4R,5R)-2-(4-acetamidopyrrolo[2,1-f][1,2,4]triazin-7-yl)-5-(acetoxymethyl)-2-cyanotetrahydrofuran-3,4-diyl diacetate] the same measures were 61%, “significantly lower than that of GS-441524” and more than 50000 nM.
On to `CC(=O)OC[C@H]1O[C@@](C#N)(c2ccc3c(N)ncnn23)[C@H](OC(C)=O)[C@@H]1OC(C)=O` [ATV003, (2R,3R,4R,5R)-5-(acetoxymethyl)-2-(4-aminopyrrolo[2,1-f][1,2,4]triazin-7-yl)-2-cyanotetrahydrofuran-3,4-diyl diacetate], for which, in the assay with SARS-CoV replicon, the IC50 came out at 910 nM and 10 µM produced 98.8% inhibition. Moreover, in the assay with SARS-CoV-2 replicon, the inhibition at 10 µM was determined as 97.6% and the IC50 was found to be 830 nM.
For `CC(C)C(=O)OC[C@H]1O[C@@](C#N)(c2ccc3c(N)ncnn23)[C@H](OC(=O)C(C)C)[C@@H]1OC(=O)C(C)C` [ATV004, (2R,3R,4R,5R)-2-(4-aminopyrrolo[2,1-f][1,2,4]triazin-7-yl)-2-cyano-5-((isobutyryloxy)methyl)tetrahydrofuran-3,4-diyl bis(2-methylpropanoate)], at 5 µM the inhibition in the assay on SARS-CoV replicon was 91.8%. Moreover, in the assay on SARS-CoV-2 replicon (in words), the “antiviral activity relative to GS-441524” value is reported as “improved”. Moreover, in the assay with SARS-CoV-2 replicon, 10 µM produced 97.5% inhibition and it took 680 nM to reach half-maximal inhibition (IC50).
Compound `CCCCCOC(=O)Nc1ncnn2c([C@]3(C#N)O[C@H](CO)[C@@H](O)[C@H]3O)ccc12` [ATV005, Pentyl (7-((2R,3R,4S,5R)-2-cyano-3,4-dihydroxy-5-(hydroxymethyl)tetrahydrofuran-2-yl)pyrrolo[2,1-f][1,2,4]triazin-4-yl)carbamate] returned an inhibition at 10 µM in the assay with SARS-CoV replicon of 73.3%. Moreover, the IC50 with SARS-CoV-2 replicon is more than 50000 nM.
As to `CC(=O)OC[C@H]1O[C@@](C#N)(c2ccc3c(N)ncnn23)[C@H](O)[C@@H]1O` [ATV007, ((2R,3S,4R,5R)-5-(4-aminopyrrolo[2,1-f][1,2,4]triazin-7-yl)-5-cyano-3,4-dihydroxytetrahydrofuran-2-yl)methyl acetate], testing at 10 µM with SARS-CoV-2 replicon gave an inhibition of 91.6%.
Still for that read-out and setting: under `CCC(=O)OC[C@H]1O[C@@](C#N)(c2ccc3c(N)ncnn23)[C@H](O)[C@@H]1O` [ATV008, ((2R,3S,4R,5R)-5-(4-aminopyrrolo[2,1-f][1,2,4]triazin-7-yl)-5-cyano-3,4-dihydroxytetrahydrofuran-2-yl)methyl propionate] stands 98.2%.
In the assay with SARS-CoV-2 (B.1) (setting [1]), `CCCC(=O)OC[C@H]1O[C@@](C#N)(c2ccc3c(N)ncnn23)[C@H](O)[C@@H]1O` [ATV009, ((2R,3S,4R,5R)-5-(4-aminopyrrolo[2,1-f][1,2,4]triazin-7-yl)-5-cyano-3,4-dihydroxytetrahydrofuran-2-yl)methyl butyrate] registered an IC50 of 1330 nM. Besides, in the assay on SARS-CoV-2 replicon (in words), the “antiviral activity relative to GS-441524” value is on record as “improved”. In the assay with SARS-CoV-2 replicon, this compound returned an inhibition at 10 µM of 98.8% and an IC50 of 220 nM.
`CCCCCCCCC(=O)OC[C@H]1O[C@@](C#N)(c2ccc3c(N)ncnn23)[C@H](O)[C@@H]1O` [ATV010, ((2R,3S,4R,5R)-5-(4-aminopyrrolo[2,1-f][1,2,4]triazin-7-yl)-5-cyano-3,4-dihydroxytetrahydrofuran-2-yl)methyl nonanoate]: in the assay on SARS-CoV-2 (B.1) (setting [1]), the IC50 is 696 nM. Moreover, the “antiviral activity relative to GS-441524” value in the assay with SARS-CoV-2 replicon (in words) is “improved”. Moreover, in the assay with SARS-CoV-2 replicon, 10 µM produced 99% inhibition and the IC50 amounted to 320 nM.
Take `CCC(CC)C(=O)OC[C@H]1O[C@@](C#N)(c2ccc3c(N)ncnn23)[C@H](O)[C@@H]1O` [ATV011, ((2R,3S,4R,5R)-5-(4-aminopyrrolo[2,1-f][1,2,4]triazin-7-yl)-5-cyano-3,4-dihydroxytetrahydrofuran-2-yl)methyl 2-ethylbutanoate]: in the assay on SARS-CoV-2 (B.1) (setting [1]), 2120 nM corresponded to half-maximal inhibition (IC50). The “antiviral activity relative to GS-441524” value in the assay with SARS-CoV-2 replicon (in words) is “improved”. In addition, in the assay on SARS-CoV-2 replicon, the inhibition at 10 µM was determined as 98.9% and the IC50 worked out at 320 nM.
`N#C[C@@]1(c2ccc3c(N)ncnn23)O[C@H](COC(=O)C2CC2)[C@@H](O)[C@H]1O` [ATV012, ((2R,3S,4R,5R)-5-(4-aminopyrrolo[2,1-f][1,2,4]triazin-7-yl)-5-cyano-3,4-dihydroxytetrahydrofuran-2-yl)methyl cyclopropanecarboxylate] displayed an inhibition at 10 µM with SARS-CoV-2 replicon of 97.1%.
The compound `N#C[C@@]1(c2ccc3c(N)ncnn23)O[C@H](COC(=O)c2ccccc2)[C@@H](O)[C@H]1O` [ATV013, ((2R,3S,4R,5R)-5-(4-aminopyrrolo[2,1-f][1,2,4]triazin-7-yl)-5-cyano-3,4-dihydroxytetrahydrofuran-2-yl)methyl benzoate] displayed an IC50 with SARS-CoV-2 (B.1) (setting [1]) of 2260 nM. In the assay on SARS-CoV-2 replicon, at 10 µM the inhibition was 97.7% and half-maximal inhibition (IC50) was put at 500 nM.
In the case of `N#C[C@@]1(c2ccc3c(N)ncnn23)O[C@H](COC(=O)C2CCCCC2)[C@@H](O)[C@H]1O` [ATV014, ((2R,3S,4R,5R)-5-(4-aminopyrrolo[2,1-f][1,2,4]triazin-7-yl)-5-cyano-3,4-dihydroxytetrahydrofuran-2-yl)methyl cyclohexanecarboxylate], in the assay with SARS-CoV-2 (B.1), the IC50 was determined as 331 nM. In the assay with SARS-CoV-2 replicon (in words), the “antiviral activity relative to GS-441524” value is “lower IC50 values and higher antiviral activity”; the “inhibition of SARS-CoV-2 replicon replication” value was “significant inhibitory effects”. For the same compound, in the assay with SARS-CoV-2 replicon, testing at 10 µM gave an inhibition of 98.2% and it took 260 nM to reach half-maximal inhibition (IC50).
In the assay on SARS-CoV-2 replicon, `N#C[C@@]1(c2ccc3c(N)ncnn23)O[C@H](COC(=O)C2CCCC2)[C@@H](O)[C@H]1O` [ATV015, ((2R,3S,4R,5R)-5-(4-aminopyrrolo[2,1-f][1,2,4]triazin-7-yl)-5-cyano-3,4-dihydroxytetrahydrofuran-2-yl)methyl cyclopentanecarboxylate] had an inhibition at 10 µM of 97.9% and a concentration for half-maximal inhibition (IC50) of 710 nM.
In the assay on SARS-CoV-2 replicon, `N#C[C@@]1(c2ccc3c(N)ncnn23)O[C@H](COC(=O)CC(F)(F)F)[C@@H](O)[C@H]1O` [ATV016, ((2R,3S,4R,5R)-5-(4-aminopyrrolo[2,1-f][1,2,4]triazin-7-yl)-5-cyano-3,4-dihydroxytetrahydrofuran-2-yl)methyl3,3,3-trifluoropropanoate] gave an inhibition at 10 µM of 97.2% and an IC50 of 830 nM.
As for `CC(C)[C@@H](N)C(=O)OC[C@H]1O[C@@](C#N)(c2ccc3c(N)ncnn23)[C@H](O)[C@@H]1O` [ATV019, ((2R,3S,4R,5R)-5-(4-aminopyrrolo[2,1-f][1,2,4]triazin-7-yl)-5-cyano-3,4-dihydroxytetrahydrofuran-2-yl)methyl D-valinate], in the assay on SARS-CoV replicon, the IC50 turned out to be 790 nM and the inhibition at 10 µM stood at 98.6%. In the assay on SARS-CoV-2 replicon, the inhibition at 10 µM is 97.2% and the IC50 was found to be 970 nM.
For `CC(C)[C@H](N)C(=O)OC[C@H]1O[C@@](C#N)(c2ccc3c(N)ncnn23)[C@H](O)[C@@H]1O` [ATV020, ((2R,3S,4R,5R)-5-(4-aminopyrrolo[2,1-f][1,2,4]triazin-7-yl)-5-cyano-3,4-dihydroxytetrahydrofuran-2-yl)methyl L-valinate] the same measures were 1300 nM, 99.2%, 99.2% and 2350 nM.
In the assay on SARS-CoV-2 replicon, `N#C[C@@]1(c2ccc3c(N)ncnn23)O[C@H](COC(=O)[C@@H](N)Cc2ccccc2)[C@@H](O)[C@H]1O` [ATV021, ((2R,3S,4R,5R)-5-(4-aminopyrrolo[2,1-f][1,2,4]triazin-7-yl)-5-cyano-3,4-dihydroxytetrahydrofuran-2-yl)methyl L-phenylalaninate] yielded an inhibition at 10 µM of 0%.
Compound `N#C[C@@]1(c2ccc3c(N)ncnn23)O[C@H](COC(=O)[C@H](N)Cc2ccccc2)[C@@H](O)[C@H]1O` [ATV022, ((2R,3S,4R,5R)-5-(4-aminopyrrolo[2,1-f][1,2,4]triazin-7-yl)-5-cyano-3,4-dihydroxytetrahydrofuran-2-yl)methyl D-phenylalaninate] showed an inhibition at 10 µM in the assay with SARS-CoV-2 replicon of 0%.
Regarding `CCC(C)[C@H](N)C(=O)OC[C@H]1O[C@@](C#N)(c2ccc3c(N)ncnn23)[C@H](O)[C@@H]1O` (stereo partly drawn) [ATV023, ((2R,3S,4R,5R)-5-(4-aminopyrrolo[2,1-f][1,2,4]triazin-7-yl)-5-cyano-3,4-dihydroxytetrahydrofuran-2-yl)methyl (2S)-2-amino-3-methylpentanoate], in the assay with SARS-CoV-2 replicon, the inhibition at 10 µM was determined as 98.7% and it took 950 nM to reach half-maximal inhibition (IC50).
The matching figures for `CCC(C)[C@@H](N)C(=O)OC[C@H]1O[C@@](C#N)(c2ccc3c(N)ncnn23)[C@H](O)[C@@H]1O` (stereo partly drawn) [ATV024, ((2R,3S,4R,5R)-5-(4-aminopyrrolo[2,1-f][1,2,4]triazin-7-yl)-5-cyano-3,4-dihydroxytetrahydrofuran-2-yl)methyl (2R)-2-amino-3-methylpentanoate]: 99.1% and 860 nM.
For `CC(C)C(=O)OC[C@H]1O[C@@](C#N)(c2cc(F)c3c(N)ncnn23)[C@H](O)[C@@H]1O` [ATV025, ((2R,3S,4R,5R)-5-(4-amino-5-fluoropyrrolo[2,1-f][1,2,4]triazin-7-yl)-5-cyano-3,4-dihydroxytetrahydrofuran-2-yl)methyl isobutyrate] the same measures were 97.8% and 890 nM.
On to `CC1(C)O[C@H]2[C@@H](O1)[C@](C#N)(c1ccc3c(N)ncnn13)O[C@@H]2CO` [Intermediate 5 of RDV, reference compound], for which 10 µM produced 75.9% inhibition in the assay on SARS-CoV replicon. This compound returned an IC50 with SARS-CoV-2 replicon of more than 50000 nM.

(Values after patent US20240317754A1 (priority 2020, published 2024).)
